Experimental data from ChEMBL document CHEMBL1130359, “In vivo immunosuppressive activity of some cyclolignans” (Bioorg Med Chem Lett, 1997).
≈ marks a conversion by molar mass, not a printed value.

Key:
Mus musculus [1] = test: Tested in vivo for immunosuppressive activity in mouse using graft vs. Host rejection technique(GVHR); % suppression at a dose of 15.0 mg/kg.; type: functional
Mus musculus [2] = test: Tested in vivo for immunosuppressive activity in mouse using allogenic skin grafting technique(SG); weight at a dose of 15 mg/kg; type: functional
Mus musculus [3] = test: Tested in vivo for immunosuppressive activity in mouse using allogenic skin grafting technique(SG); mean graft survival at a dose of 0.15 mg/kg; type: functional
Mus musculus [4] = test: Tested in vivo for immunosuppressive activity in mouse using graft vs. Host rejection technique(GVHR); spleen weight normalized to D8 body weight at a dose of 0.15 mg/kg; type: functional
Mus musculus [5] = test: Tested in vivo for immunosuppressive activity in mouse using graft vs. Host rejection technique(GVHR);% suppression at a dose of 0.15 mg/kg; type: functional
Mus musculus [6] = test: Tested in vivo for immunosuppressive activity in mouse using graft vs. Host rejection technique(GVHR); spleen index at a dose of 15.0 mg/kg; type: functional
Mus musculus [7] = test: Tested in vivo for immunosuppressive activity in mouse using allogenic skin grafting technique(SG); mean graft survival at a dose of 1.5 mg/kg; type: functional
Mus musculus [8] = test: Tested in vivo for immunosuppressive activity in mouse using graft vs. Host rejection technique(GVHR); weight change at a dose of 0.15 mg/kg; type: functional
Mus musculus [9] = test: Tested in vivo for immunosuppressive activity in mouse using allogenic skin grafting technique(SG); graft survival relative to cyclophosphamide at a dose of 15.0 mg/kg; type: functional
Mus musculus [10] = organism: Mus musculus; test: Tested for immunosuppressive activity in mouse using allogenic MLR method; type: functional, organism-based
[11] = Tested in vitro for cytotoxicity against […](LcV) in cells; type: functional
Mus musculus [12] = test: Tested in vivo for immunosuppressive activity in mouse using graft vs. Host rejection technique(GVHR); % suppression at a dose of 1.5 mg/kg; type: functional
Mus musculus [13] = test: Tested in vivo for immunosuppressive activity in mouse using graft vs. Host rejection technique(GVHR); body weight at a dose of 1.5 mg/kg; type: functional
Mus musculus [14] = test: Tested in vivo for immunosuppressive activity in mouse using allogenic skin grafting technique(SG); weight lost at a dose of 1.50 mg/kg; type: functional; details: dose 1.5 mg/kg
Mus musculus [15] = test: Tested in vivo for immunosuppressive activity in mouse using graft vs. Host rejection technique(GVHR); spleen weight normalized to D8 body weight at a dose of 1.5 mg/kg; type: functional
Mus musculus [16] = test: Tested in vivo for immunosuppressive activity in mouse using allogenic skin grafting technique(SG); graft survival relative to cyclophosphamide at a dose of 0.15 mg/kg; type: functional
Mus musculus [17] = test: Tested in vivo for immunosuppressive activity in mouse using graft vs. Host rejection technique(GVHR); spleen weight normalized to D8 body weight at a dose of 15.0 mg/kg; type: functional
Mus musculus [18] = test: Tested in vivo for immunosuppressive activity in mouse using allogenic skin grafting technique(SG); weight at a dose of 0.15 mg/kg; type: functional
Mus musculus [19] = test: Tested in vivo for immunosuppressive activity in mouse using graft vs. Host rejection technique(GVHR); body weight at a dose of 15.0 mg/kg; type: functional
[20] = Non-cytotoxic IMS activity (ratio LcV/MLR) was determined; type: functional
Mus musculus [21] = test: Tested in vivo for immunosuppressive activity in mouse using graft vs. Host rejection technique(GVHR); body weight at a dose of 0.15 mg/kg.; type: functional
Mus musculus [22] = test: Tested in vivo for immunosuppressive activity in mouse using allogenic skin grafting technique(SG); mean graft survival at a dose of 15.0 mg/kg.; type: functional
Mus musculus [23] = test: Tested in vivo for immunosuppressive activity in mouse using allogenic skin grafting technique(SG); weight lost at a dose of 0.15 mg/kg; type: functional
Mus musculus [24] = test: Tested in vivo for immunosuppressive activity in mouse using graft vs. Host rejection technique(GVHR); weight change at a dose of 1.5 mg/kg.; type: functional
Mus musculus [25] = test: Tested in vivo for immunosuppressive activity in mouse using graft vs. Host rejection technique(GVHR); spleen index at a dose of 0.15 mg/kg; type: functional
Mus musculus [26] = test: Tested in vivo for immunosuppressive activity in mouse using graft vs. Host rejection technique(GVHR); spleen index at a dose of 1.5 mg/kg; type: functional
Mus musculus [27] = test: Tested in vivo for immunosuppressive activity in mouse using allogenic skin grafting technique(SG); weight at a dose of 1.50 mg/kg; type: functional; details: dose 1.5 mg/kg
Mus musculus [28] = test: Tested in vivo for immunosuppressive activity in mouse using graft vs. Host rejection technique(GVHR); weight change at a dose of 15.0 mg/kg; type: functional
Mus musculus [29] = test: Tested in vivo for immunosuppressive activity in mouse using graft vs. Host rejection technique(GVHR); weight at a dose of 15 mg/kg; type: functional
Mus musculus [30] = test: Tested in vivo for immunosuppressive activity in mouse using allogenic skin grafting technique(SG); graft survival relative to cyclophosphamide at a dose of 1.5 mg/kg; type: functional
Mus musculus [31] = test: Tested in vivo for immunosuppressive activity in mouse using graft vs. Host rejection technique(GVHR); weight change at a dose of 25.0 mg/kg; type: functional
Mus musculus [32] = test: Tested in vivo for immunosuppressive activity in mouse using allogenic skin grafting technique(SG); graft survival relative to cyclophosphamide at a dose of 25.0 mg/kg; type: functional
Mus musculus [33] = test: Tested in vivo for immunosuppressive activity in mouse using allogenic skin grafting technique(SG); mean graft survival at a dose of 25.0 mg/kg; type: functional
Mus musculus [34] = test: Tested in vivo for immunosuppressive activity in mouse using graft vs. Host rejection technique(GVHR); % suppression at a dose of 15.0 mg/kg; type: functional
Mus musculus [35] = test: Tested in vivo for immunosuppressive activity in mouse using graft vs. Host rejection technique(GVHR); weight change at a dose of 1.5 mg/kg; type: functional
Mus musculus [36] = test: Tested in vivo for immunosuppressive activity in mouse using allogenic skin grafting technique(SG); mean graft survival at a dose of 15.0 mg/kg; type: functional
Mus musculus [37] = test: Tested in vivo for immunosuppressive activity in mouse using allogenic skin grafting technique(SG); weight at a dose of 1.5 mg/kg; type: functional
Mus musculus [38] = test: Tested in vivo for immunosuppressive activity in mouse using graft vs. Host rejection technique(GVHR); body weight at a dose of 0.15 mg/kg; type: functional
Mus musculus [39] = test: Tested in vivo for immunosuppressive activity in mouse using allogenic skin grafting technique(SG); weight lost at a dose of 1.5 mg/kg; type: functional
Mus musculus [40] = test: Tested in vivo for immunosuppressive activity in mouse using graft vs. Host rejection technique(GVHR); % suppression at a dose of 0.15 mg/kg; type: functional
Mus musculus [41] = test: Tested in vivo for immunosuppressive activity in mouse using graft vs. Host rejection technique(GVHR); % suppression at a dose of 15 mg/kg; type: functional
Mus musculus [42] = test: Tested in vivo for immunosuppressive activity in mouse using graft vs Host rejection technique(GVHR); body weight at a dose of 0.15 mg/kg; type: functional
Mus musculus [43] = test: Tested in vivo for immunosuppressive activity in mouse using allogenic skin grafting technique(SG); mean graft survival at a dose of 15 mg/kg; type: functional
Mus musculus [44] = test: Tested in vivo for immunosuppressive activity in mouse using graft vs Host rejection technique(GVHR); weight change at a dose of 1.5 mg/kg on day 5; type: functional
Mus musculus [45] = test: Tested in vivo for immunosuppressive activity in mouse using allogenic skin grafting technique(SG); weight lost at a dose of 1.5 mg/kg on day 5; type: functional
Mus musculus [46] = test: Tested in vivo for immunosuppressive activity in mouse using graft vs Host rejection technique(GVHR); spleen weight normalized to D8 body weight at a dose of 1.5 mg/kg; type: functional
Mus musculus [47] = test: Tested in vivo for immunosuppressive activity in mouse using graft vs Host rejection technique(GVHR); spleen index at a dose of 0.15 mg/kg; type: functional
Mus musculus [48] = test: Tested in vivo for immunosuppressive activity in mouse using graft vs Host rejection technique(GVHR); spleen weight normalized to D8 body weight at a dose of 0.15 mg/kg; type: functional
Mus musculus [49] = test: Tested in vivo for immunosuppressive activity in mouse using graft vs Host rejection technique(GVHR); weight change at a dose of 0.15 mg/kg on day 5; type: functional
Mus musculus [50] = test: Tested in vivo for immunosuppressive activity in mouse using graft vs Host rejection technique(GVHR); body weight at a dose of 15.0 mg/kg; type: functional
Mus musculus [51] = test: Tested in vivo for immunosuppressive activity in mouse using graft vs Host rejection technique(GVHR);% suppression at a dose of 1.5 mg/kg; type: functional
Mus musculus [52] = test: Tested in vivo for immunosuppressive activity in mouse using graft vs Host rejection technique(GVHR); weight change at a dose of 15.0 mg/kg on day 5; type: functional
Mus musculus [53] = test: Tested in vivo for immunosuppressive activity in mouse using graft vs Host rejection technique(GVHR); spleen index at a dose of 15.0 mg/kg; type: functional
Mus musculus [54] = test: Tested in vivo for immunosuppressive activity in mouse using graft vs Host rejection technique(GVHR); spleen index at a dose of 1.5 mg/kg; type: functional
Mus musculus [55] = test: Tested in vivo for immunosuppressive activity in mouse using graft vs Host rejection technique(GVHR); weight at a dose of 15 mg/kg; type: functional
Mus musculus [56] = test: Tested in vivo for immunosuppressive activity in mouse using graft vs Host rejection technique(GVHR); spleen weight normalized to D8 body weight at a dose of 15.0 mg/kg; type: functional
Mus musculus [57] = test: Tested in vivo for immunosuppressive activity in mouse using graft vs Host rejection technique(GVHR); body weight at a dose of 1.5 mg/kg; type: functional
Mus musculus [58] = test: Tested in vivo for immunosuppressive activity in mouse using graft vs Host rejection technique(GVHR); % suppression at a dose of 15.0 mg/kg; type: functional

Structure (SMILES)	Body weight (Mus musculus [2]) [g]	Mean graft survival (Mus musculus [3]) [days]	Spleen weight (Mus musculus [4]) [g]	SI (Mus musculus [6])	Mean graft survival (Mus musculus [7]) [days]	Weight change (Mus musculus [8]) [%]	graft survival (Mus musculus [9]) [days]	IC50 (Mus musculus [10]) [ng/mL]	Cytotoxicity [11] [µg/mL]	Activity (Mus musculus [12]) [%]	Body weight (Mus musculus [13]) [g]	Spleen weight (Mus musculus [15]) [g]	graft survival (Mus musculus [16]) [days]	Spleen weight (Mus musculus [17]) [g]	Body weight (Mus musculus [18]) [g]	Body weight (Mus musculus [19]) [g]	Ratio [20]	Body weight (Mus musculus [23]) [g]	SI (Mus musculus [25])	graft survival (Mus musculus [30]) [days]	also measured
COc1cc([C@@H]2c3cc(O)c(O)cc3[C@H](O)[C@H]3COC(=O)[C@H]23)cc(OC)c1OC [6,7-O,O-DEMETHYLENEPODOPHYLLOTOXIN]	1.6	10	4.1	1.15	12.5	-1.8	1.09	5.63 (≈ 14 nM)	>27.5	85	16.8	5.2	1.02	5.75	18.7	16.3	>4885	0.7	0.82	1.28	Activity (Mus musculus [1]): 44%; Activity (Mus musculus [5]): 167%; Body weight (Mus musculus [14]): 1 g; Body weight (Mus musculus [21]): 16.5 g; Mean graft survival (Mus musculus [22]): 10.7 days; Weight change (Mus musculus [24]): 2.9%; SI (Mus musculus [26]): 1.04; Body weight (Mus musculus [27]): 18.5 g; Weight change (Mus musculus [28]): 1.8%; Body weight (Mus musculus [29]): 17.8 g
C/C=C/C[C@@H](C)[C@@H](O)[C@H]1C(=O)N[C@@H](CC)C(=O)N(C)CC(=O)N(C)[C@@H](CC(C)C)C(=O)N[C@@H](C(C)C)C(=O)N(C)[C@@H](CC(C)C)C(=O)N[C@@H](C)C(=O)N[C@H](C)C(=O)N(C)[C@@H](CC(C)C)C(=O)N(C)[C@@H](CC(C)C)C(=O)N(C)[C@@H](C(C)C)C(=O)N1C [CYCLOSPORINE]	–	–	–	–	–	–	–	–	–	–	–	–	–	–	–	–	–	–	–	–	Weight change (Mus musculus [31]): 2.7%; graft survival (Mus musculus [32]): 1 days; Mean graft survival (Mus musculus [33]): 9.8 days
COc1cc([C@@H]2c3cc(O)c(O)cc3[C@@H](O)[C@H]3COC(=O)[C@H]23)cc(OC)c1OC	0.2	11	4.05	1	11	0	0.99	0.015 (≈ 0.0373 nM)	>35	144	15.8	4.4	1.12	5.02	18.3	16.3	>23333333	0.6	0.81	1.12	Activity (Mus musculus [34]): 100%; Weight change (Mus musculus [35]): 1.9%; Mean graft survival (Mus musculus [36]): 9.7 days; Body weight (Mus musculus [37]): 18.5 g; Body weight (Mus musculus [38]): 17 g; SI (Mus musculus [26]): 0.88; Body weight (Mus musculus [39]): 1 g; Weight change (Mus musculus [28]): -3%; Activity (Mus musculus [40]): 170%; Body weight (Mus musculus [41]): 18.2 g
COc1cc([C@@H]2c3cc4c(cc3C3=NOC[C@H]3[C@@H]2C(=O)O)OCO4)cc(OC)c1OC	–	11.2	–	–	6.8	–	–	< 9	>30	–	–	–	1.14	–	19	–	>3333	0.5	–	0.69	Body weight (Mus musculus [42]): 15.8 g; Mean graft survival (Mus musculus [43]): 0.9 days; Weight change (Mus musculus [44]): 0%; Body weight (Mus musculus [45]): 1.7 g; Spleen weight (Mus musculus [46]): 4.35 g; SI (Mus musculus [47]): 1.14; Spleen weight (Mus musculus [48]): 5.7 g; Weight change (Mus musculus [49]): 3.1%; Body weight (Mus musculus [50]): 16.5 g; Activity (Mus musculus [51]): 48%; Weight change (Mus musculus [52]): 1.8%; Body weight (Mus musculus [37]): 18.7 g; SI (Mus musculus [53]): 1.27; SI (Mus musculus [54]): 0.87; Body weight (Mus musculus [55]): 17.8 g; Spleen weight (Mus musculus [56]): 6.34 g; Body weight (Mus musculus [57]): 16 g; Activity (Mus musculus [58]): 148%
